In brackets after ≈: the same amount, converted by molar mass. Each block holds one compound with its values, some of them ahead of it.
What was measured:
[1] = system: Staphylococcus aureus; assay: Antibacterial activity against Meticillin-Sensitive Staphylococcus aureus assessed as bacterial growth inhibtion; assay type: functional
[2] = system: Staphylococcus aureus; assay: Antibacterial activity against Staphylococcus aureus assessed as bacterial growth inhibition; assay type: functional
[3] = system: Macrococcus caseolyticus; assay: Antibacterial activity against Macrococcus caseolyticus assessed as bacterial growth inhibition; assay type: functional; conditions: Macrococcoides caseolyticum
[4] = system: Escherichia coli; assay: Antibacterial activity against Escherichia coli assessed as bacterial growth inhibition; assay type: functional
[5] = system: Pseudomonas aeruginosa; assay: Antibacterial activity against Pseudomonas aeruginosa assessed as bacterial growth inhibition; assay type: functional
[6] = system: Staphylococcus aureus; assay: Antibacterial activity against Meticillin-Sensitive Staphylococcus aureus assessed as bacterial growth inhibtion incubated for 18 hrs by broth microdilution method; assay type: functional
[7] = system: Staphylococcus aureus; assay: Antibacterial activity against Meticillin-Resistant Staphylococcus aureus assessed as bacterial growth inhibtion incubated for 18 hrs by broth microdilution method; assay type: functional
[8] = system: Staphylococcus aureus; assay: Antibacterial activity against Meticillin-Sensitive Staphylococcus aureus assessed as bacterial growth inhibtion incubated for 4 to 6 hrs by broth microdilution method; assay type: functional; conditions: time 4-6 hrs
[9] = molecular target: T1, Cell division protein FtsZ (Staphylococcus aureus, UniProt P0A031); assay: Inhibition of Staphylococcus aureus recombinant FTsZ preincubated for 10 mins followed by compound addition measured after 30 mins by Cytophos phosphate assay
T1 sequence (P0A031 whole entry): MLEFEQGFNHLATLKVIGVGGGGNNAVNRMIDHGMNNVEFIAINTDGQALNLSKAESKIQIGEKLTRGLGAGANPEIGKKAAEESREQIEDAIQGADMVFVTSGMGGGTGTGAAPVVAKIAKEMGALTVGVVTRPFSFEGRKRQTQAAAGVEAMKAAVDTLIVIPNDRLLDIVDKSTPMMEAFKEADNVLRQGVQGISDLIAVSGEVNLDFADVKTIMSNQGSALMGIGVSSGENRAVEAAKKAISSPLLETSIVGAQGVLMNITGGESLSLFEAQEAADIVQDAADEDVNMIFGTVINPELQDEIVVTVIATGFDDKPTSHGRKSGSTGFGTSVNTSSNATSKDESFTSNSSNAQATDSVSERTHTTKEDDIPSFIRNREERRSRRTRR

[10] = system: Staphylococcus aureus; assay: Antibacterial activity against Meticillin-Resistant Staphylococcus aureus assessed as bacterial growth inhibtion; assay type: functional
[11] = Inhibition of FTsZ (unknown origin)
[12] = system: Staphylococcus aureus; assay: Antibacterial activity against Meticillin-Sensitive Staphylococcus aureus assessed as bacterial growth inhibtion by resazurin colorimetric assay; assay type: functional
[13] = system: Staphylococcus aureus; assay: Antibacterial activity against Meticillin-Resistant Staphylococcus aureus assessed as bacterial growth inhibtion by resazurin colorimetric assay; assay type: functional
[14] = system: Burkholderia cepacia; assay: Antibacterial activity against Burkholderia cepacia assessed as bacterial growth inhibition by checkerboard assay; assay type: functional
[15] = system: Staphylococcus aureus; assay: Antibacterial activity against Meticillin-Sensitive Staphylococcus aureus assessed as bacterial growth inhibtion incubated for 14 to 16 hrs; assay type: functional; conditions: time 14-16 hrs
[16] = system: Staphylococcus aureus; assay: Antibacterial activity against Meticillin-Resistant Staphylococcus aureus assessed as bacterial growth inhibtion incubated for 14 to 16 hrs; assay type: functional; conditions: time 14-16 hrs
[17] = molecular target: T2, Cell division protein FtsZ (Staphylococcus aureus) (UniProt P0A031); assay: Inhibition of Staphylococcus aureus recombinant FTsZ at 50 uM by GTPase activity assay relative to control
T2 sequence (whole entry): T1 sequence (P0A031 whole entry)

[18] = molecular target: T3, Cell division protein FtsZ (Escherichia coli K-12, UniProt P0A9A6); assay: Inhibition of Escherichia coli recombinant FTsZ incubated for 10 mins in presence of GTP by spectrofluorimeter analysis
T3 sequence (P0A9A6 whole entry): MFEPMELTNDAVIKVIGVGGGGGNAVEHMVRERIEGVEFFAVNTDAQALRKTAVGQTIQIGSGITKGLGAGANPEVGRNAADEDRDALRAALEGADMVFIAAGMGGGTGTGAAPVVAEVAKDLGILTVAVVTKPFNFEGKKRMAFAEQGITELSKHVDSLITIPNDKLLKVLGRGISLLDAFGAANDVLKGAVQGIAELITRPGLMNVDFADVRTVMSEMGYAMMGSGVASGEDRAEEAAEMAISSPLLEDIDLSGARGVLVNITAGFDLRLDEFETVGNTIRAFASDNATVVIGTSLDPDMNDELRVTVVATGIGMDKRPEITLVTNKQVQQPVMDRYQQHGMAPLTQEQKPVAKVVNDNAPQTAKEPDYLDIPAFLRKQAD

[19] = system: Staphylococcus aureus; assay: Antibacterial activity against Meticillin-Sensitive Staphylococcus aureus assessed as bacterial growth inhibtion incubated for 24 hrs by broth microdilution method; assay type: functional
[20] = system: Staphylococcus aureus; assay: Antibacterial activity against Meticillin-Resistant Staphylococcus aureus assessed as bacterial growth inhibtion incubated for 24 hrs by broth microdilution method; assay type: functional

MIC [1]: 5 µg/mL | MIC [2]: 5 µg/mL | MIC [3]: 5 µg/mL | MIC [4]: 5 µg/mL | MIC [5]: 5 µg/mL
SMILES: Cc1n(Cc2ccc(Cl)cc2)c2ccccc2[n+]1Cc1ccc(Cl)cc1

SMILES: Cc1ccc(/C=C/c2nc(/C=C3\Sc4ccccc4N3C)c3ccccc3[n+]2C)cc1.[I-]
MIC [6]: 2 µg/mL | MIC [7]: 2 µg/mL

SMILES: COc1ccc2cc3[n+](cc2c1OCCCOc1ccc(Cl)cc1)CCc1cc2c(cc1-3)OCO2.[Br-]
MIC [6]: 2 µg/mL | MIC [7]: 2 µg/mL

SMILES: CCC(CC)c1cc([C@H]2CN3CC[C@H]2C[C@@H]3CNCc2ccc(CO)o2)nc(-c2ccncc2)n1
MIC [8]: 50.5 µM (≈ 24 µg/mL) | IC50 [9]: 77.2 µM

SMILES: CCC(CC)c1cc([C@H]2CN3CC[C@H]2C[C@@H]3CN)nc(-c2ccncc2)n1
MIC [8]: 24.6 µM (≈ 8.99 µg/mL)

SMILES: NC(=O)c1c(F)ccc(OCc2nc3cc(Cl)cnc3s2)c1F
MIC [1]: 1 µg/mL (≈ 2.81 µM) | MIC [10]: 1 µg/mL (≈ 2.81 µM) | IC50 [11]: 0.055 µg/mL (≈ 0.155 µM)

SMILES: COC(=O)CSc1ccc2nsnc2c1[N+](=O)[O-]
MIC [12]: 2 µg/mL (≈ 7.01 µM) | MIC [13]: 2 µg/mL (≈ 7.01 µM) | MIC [14]: 8 µg/mL

MIC [1]: 5 µg/mL | MIC [2]: 5 µg/mL | MIC [3]: 5 µg/mL | MIC [4]: 5 µg/mL | MIC [5]: 5 µg/mL
SMILES: Cc1n(Cc2ccc(Cl)c(Cl)c2)c2ccccc2[n+]1Cc1ccc(Cl)c(Cl)c1

SMILES: CCN(CC)CCNc1nc(/C=C/c2ccc(Cl)cc2)nc2cc3ccccc3cc12
MIC [15]: 5 µg/mL (≈ 11.6 µM) | MIC [16]: 10 µg/mL (≈ 23.2 µM)

SMILES: CCC(CC)c1cc(CCN2CCCN(Cc3ccc(C(F)(F)F)cc3)CC2)nc(-c2ccncc2)n1
MIC [1]: 3 µg/mL (≈ 5.86 µM) | MIC [10]: 6 µg/mL (≈ 11.7 µM) | inhibition [17]: 20%

IC50 [18]: 3 µM
SMILES: C[n+]1cc2c3c(ccc2c2ccc4cc5c(cc4c21)OCO5)OCO3 [SANGUINARIUM]

IC50 [9]: 10 µM
SMILES: COc1ccc2cc3[n+](cc2c1OC)CCc1cc2c(cc1-3)OCO2 [BERBERINE]

SMILES: CCC(CC)c1cc([C@H]2CN3CC[C@H]2C[C@@H]3CNCc2ccco2)nc(-c2ccncc2)n1
MIC [8]: 26.9 µM (≈ 12 µg/mL) | IC50 [9]: 55.7 µM

SMILES: Cc1ccc(/C=C/c2nc(/C=C3\Sc4ccccc4N3CCCN3CCC(C)CC3)c3ccccc3[n+]2C)cc1.[I-]
MIC [6]: 2 µg/mL | MIC [7]: 2 µg/mL

SMILES: Cc1nc(-c2cccs2)cc([C@H]2CN3CC[C@H]2C[C@@H]3CNC(=O)CCCC(=O)O)n1
MIC [8]: 897 µM (≈ 384 µg/mL) | IC50 [9]: 317 µM

SMILES: CN(C)CNC(=O)c1c(F)ccc(OCc2nc3cc(Cl)ccc3s2)c1F
MIC [19]: 0.5 µg/mL (≈ 1.21 µM) | MIC [20]: 0.5 µg/mL (≈ 1.21 µM)

MIC [1]: 5 µg/mL | MIC [2]: 5 µg/mL | MIC [3]: 5 µg/mL | MIC [4]: 5 µg/mL | MIC [5]: 5 µg/mL
SMILES: Cc1n(Cc2ccccc2)c2ccccc2[n+]1Cc1ccc(Cl)c(Cl)c1

Source: ChEMBL document CHEMBL5233228, “The cell division protein FtsZ as a cellular target to hit cystic fibrosis pathogens” (Eur J Med Chem, 2020)
